{"source": "patent US20250367126A1", "about": "“SOFTGEL CAPSULE COMPRISING A H2 RECEPTOR ANTAGONIST” (KENVUE BRANDS LLC, priority 2024, published 2025)", "key": {"[1]": {"protocol": "For this evaluation, excipients were added to clear glass vials at ambient temperature. […] The vials were attached to a Burrell Action Wrist Shaker (mechanical shaker) and agitated for approximately 60 hours (hrs) at ambient conditions.\nAfter shaking for approximately 60 hrs, a first portion of the supernatant solution from each vial was submitted for chemical analysis. A second portion of the remaining dispersions was transferred to amber vials and stored at ambient conditions."}, "[2]": {"conditions": "J Pharm Pharmacol 1993, 45:682-686, cited from earlier work"}, "[3]": {"conditions": "Acidified PEG 400 Solution with water [PEG 400 (59.7%) + acetic acid (30.0%) + water (10.3%)], 2 Weeks in Amber Vials"}, "[4]": {"conditions": "Acidified PEG 400 Solution with water [PEG 400 (59.7%) + acetic acid (30.0%) + water (10.3%)], 2 Weeks in Clear Vials"}, "[5]": {"conditions": "Acidified PEG 400 Solution with water [PEG 400 (59.7%) + acetic acid (30.0%) + water (10.3%)], Initial"}, "[6]": {"conditions": "Caprylocaproyl Polyoxyl-8 Glycerides NF (Labrasol), 2 Weeks in Amber Vials"}, "[7]": {"conditions": "Caprylocaproyl Polyoxyl-8 Glycerides NF (Labrasol), 2 Weeks in Clear Vials"}, "[8]": {"conditions": "Caprylocaproyl Polyoxyl-8 Glycerides NF (Labrasol), Initial"}, "[9]": {"conditions": "Medium Chain Triglycerides NF (MCT), 2 Weeks in Amber Vials"}, "[10]": {"conditions": "Medium Chain Triglycerides NF (MCT), 2 Weeks in Clear Vials"}, "[11]": {"conditions": "Medium Chain Triglycerides NF (MCT), Initial"}, "[12]": {"conditions": "Mono/Diglycerides of Capric/Caprylic Acid NF (Capmul MCM), 2 Weeks in Amber Vials"}, "[13]": {"conditions": "Mono/Diglycerides of Capric/Caprylic Acid NF (Capmul MCM), 2 Weeks in Clear Vials"}, "[14]": {"conditions": "Mono/Diglycerides of Capric/Caprylic Acid NF (Capmul MCM), Initial"}, "[15]": {"conditions": "Polyethylene Glycol 400, NF (PEG 400), 2 Weeks in Amber Vials"}, "[16]": {"conditions": "Polyethylene Glycol 400, NF (PEG 400), 2 Weeks in Clear Vials"}, "[17]": {"conditions": "Polyethylene Glycol 400, NF (PEG 400), Initial"}, "[18]": {"conditions": "Polyoxyl-35 Castor Oil NF (Kolliphor EL), 2 Weeks in Amber Vials"}, "[19]": {"conditions": "Polyoxyl-35 Castor Oil NF (Kolliphor EL), 2 Weeks in Clear Vials"}, "[20]": {"conditions": "Polyoxyl-35 Castor Oil NF (Kolliphor EL), Initial"}, "[21]": {"conditions": "Polysorbate 80 NF (Tween 80), 2 Weeks in Amber Vials"}, "[22]": {"conditions": "Polysorbate 80 NF (Tween 80), 2 Weeks in Clear Vials"}, "[23]": {"conditions": "Polysorbate 80 NF (Tween 80), Initial"}}, "note": "Read-outs that look alike come from different tables or passages of the source.", "data": [{"smiles": "NC(N)=Nc1nc(CSCCC(N)=NS(N)(=O)=O)cs1", "note": "[famotidine]", "values": [{"measurement": "Equilibrium solubility of famotidine, mg/g Solvent", "setting": "[1]; [3]", "value": 137, "unit": "mg/g"}, {"measurement": "Equilibrium solubility of famotidine, mg/g Total", "setting": "[1]; [3]", "value": 121, "unit": "mg/g"}, {"measurement": "Equilibrium solubility of famotidine, mg/g Solvent", "setting": "[1]; [4]", "value": 141, "unit": "mg/g"}, {"measurement": "Equilibrium solubility of famotidine, mg/g Total", "setting": "[1]; [4]", "value": 124, "unit": "mg/g"}, {"measurement": "Equilibrium solubility of famotidine, mg/g Solvent", "setting": "[1]; [5]", "value": 160, "unit": "mg/g"}, {"measurement": "Equilibrium solubility of famotidine, mg/g Total", "setting": "[1]; [5]", "value": 138, "unit": "mg/g"}, {"measurement": "Equilibrium solubility of famotidine, mg/g Solvent", "setting": "[1]; [6]", "value": 58, "unit": "mg/g"}, {"measurement": "Equilibrium solubility of famotidine, mg/g Total", "setting": "[1]; [6]", "value": 55, "unit": "mg/g"}, {"measurement": "Equilibrium solubility of famotidine, mg/g Solvent", "setting": "[1]; [7]", "value": 61, "unit": "mg/g"}, {"measurement": "Equilibrium solubility of famotidine, mg/g Total", "setting": "[1]; [7]", "value": 57, "unit": "mg/g"}, {"measurement": "Equilibrium solubility of famotidine, mg/g Solvent", "setting": "[1]; [8]", "value": 61, "unit": "mg/g"}, {"measurement": "Equilibrium solubility of famotidine, mg/g Total", "setting": "[1]; [8]", "value": 57, "unit": "mg/g"}, {"measurement": "Equilibrium solubility of famotidine, mg/g Solvent", "setting": "[1]; Glacial acetic acid, Initial", "value": 318, "unit": "mg/g"}, {"measurement": "Equilibrium solubility of famotidine, mg/g Total", "setting": "[1]; Glacial acetic acid, Initial", "value": 241, "unit": "mg/g"}, {"measurement": "Equilibrium solubility of famotidine, mg/g Solvent", "setting": "[1]; [9]", "value": "ND (“ND” means not detected, famotidine content was below 0.1 mg/g.)"}, {"measurement": "Equilibrium solubility of famotidine, mg/g Total", "setting": "[1]; [9]", "value": "ND (“ND” means not detected, famotidine content was below 0.1 mg/g.)"}, {"measurement": "Equilibrium solubility of famotidine, mg/g Solvent", "setting": "[1]; [10]", "value": "ND (“ND” means not detected, famotidine content was below 0.1 mg/g.)"}, {"measurement": "Equilibrium solubility of famotidine, mg/g Total", "setting": "[1]; [10]", "value": "ND (“ND” means not detected, famotidine content was below 0.1 mg/g.)"}, {"measurement": "Equilibrium solubility of famotidine, mg/g Solvent", "setting": "[1]; [11]", "value": "ND (“ND” means not detected, famotidine content was below 0.1 mg/g.)"}, {"measurement": "Equilibrium solubility of famotidine, mg/g Total", "setting": "[1]; [11]", "value": "ND (“ND” means not detected, famotidine content was below 0.1 mg/g.)"}, {"measurement": "Equilibrium solubility of famotidine, mg/g Solvent", "setting": "[1]; [12]", "value": 3, "unit": "mg/g"}, {"measurement": "Equilibrium solubility of famotidine, mg/g Total", "setting": "[1]; [12]", "value": 3, "unit": "mg/g"}, {"measurement": "Equilibrium solubility of famotidine, mg/g Solvent", "setting": "[1]; [13]", "value": 3, "unit": "mg/g"}, {"measurement": "Equilibrium solubility of famotidine, mg/g Total", "setting": "[1]; [13]", "value": 3, "unit": "mg/g"}, {"measurement": "Equilibrium solubility of famotidine, mg/g Solvent", "setting": "[1]; [14]", "value": 3, "unit": "mg/g"}, {"measurement": "Equilibrium solubility of famotidine, mg/g Total", "setting": "[1]; [14]", "value": 3, "unit": "mg/g"}, {"measurement": "Equilibrium solubility of famotidine, mg/g Solvent", "setting": "[1]; [15]", "value": 115, "unit": "mg/g"}, {"measurement": "Equilibrium solubility of famotidine, mg/g Total", "setting": "[1]; [15]", "value": 103, "unit": "mg/g"}, {"measurement": "Equilibrium solubility of famotidine, mg/g Solvent", "setting": "[1]; [16]", "value": 116, "unit": "mg/g"}, {"measurement": "Equilibrium solubility of famotidine, mg/g Total", "setting": "[1]; [16]", "value": 104, "unit": "mg/g"}, {"measurement": "Equilibrium solubility of famotidine, mg/g Solvent", "setting": "[1]; [17]", "value": 118, "unit": "mg/g"}, {"measurement": "Equilibrium solubility of famotidine, mg/g Total", "setting": "[1]; [17]", "value": 106, "unit": "mg/g"}, {"measurement": "Equilibrium solubility of famotidine, mg/g Solvent", "setting": "[1]; [18]", "value": 64, "unit": "mg/g"}, {"measurement": "Equilibrium solubility of famotidine, mg/g Total", "setting": "[1]; [18]", "value": 60, "unit": "mg/g"}, {"measurement": "Equilibrium solubility of famotidine, mg/g Solvent", "setting": "[1]; [19]", "value": 63, "unit": "mg/g"}, {"measurement": "Equilibrium solubility of famotidine, mg/g Total", "setting": "[1]; [19]", "value": 60, "unit": "mg/g"}, {"measurement": "Equilibrium solubility of famotidine, mg/g Solvent", "setting": "[1]; [20]", "value": 64, "unit": "mg/g"}, {"measurement": "Equilibrium solubility of famotidine, mg/g Total", "setting": "[1]; [20]", "value": 60, "unit": "mg/g"}, {"measurement": "Equilibrium solubility of famotidine, mg/g Solvent", "setting": "[1]; [21]", "value": 45, "unit": "mg/g"}, {"measurement": "Equilibrium solubility of famotidine, mg/g Total", "setting": "[1]; [21]", "value": 43, "unit": "mg/g"}, {"measurement": "Equilibrium solubility of famotidine, mg/g Solvent", "setting": "[1]; [22]", "value": 36, "unit": "mg/g"}, {"measurement": "Equilibrium solubility of famotidine, mg/g Total", "setting": "[1]; [22]", "value": 35, "unit": "mg/g"}, {"measurement": "Equilibrium solubility of famotidine, mg/g Solvent", "setting": "[1]; [23]", "value": 45, "unit": "mg/g"}, {"measurement": "Equilibrium solubility of famotidine, mg/g Total", "setting": "[1]; [23]", "value": 43, "unit": "mg/g"}, {"measurement": "Equilibrium solubility of famotidine, mg/g Solvent", "setting": "[1]; Propylene Glycol USP, Initial", "value": 17, "unit": "mg/g"}, {"measurement": "Equilibrium solubility of famotidine, mg/g Total", "setting": "[1]; Propylene Glycol USP, Initial", "value": 17, "unit": "mg/g"}, {"measurement": "solubility of famotidine (in words)", "setting": "[1]; hydrophilic solvents (PEG 400, acidified PEG 400 solution with water, glacial acetic acid)", "value": "High solubility"}, {"measurement": "aqueous solubility", "setting": "[2]", "value": "poor aqueous solubility"}, {"measurement": "lipophilicity", "setting": "[2]", "value": "poor lipophilicity"}, {"measurement": "stability versus pH", "setting": "[2]; liquid media", "value": "low stability outside a pH range of 6 to 7"}]}]}
